Experiment [1] deals with Adrenergic receptor alpha-2 (Rattus norvegicus) (UniProt P22086+P19328+P22909). The experiment can be described thus: In vitro binding affinity determined for alpha-2 adrenergic receptor by the percentage displacement of [3H]- clonidine at 10e-6 M; Not active :Less than 50% activity. It is filed as protein assay.
The target of experiment [2] is T1, Adrenergic receptor alpha-1 (Rattus norvegicus, UniProt P15823+P23944+P43140).
T1 sequence (P15823 whole entry): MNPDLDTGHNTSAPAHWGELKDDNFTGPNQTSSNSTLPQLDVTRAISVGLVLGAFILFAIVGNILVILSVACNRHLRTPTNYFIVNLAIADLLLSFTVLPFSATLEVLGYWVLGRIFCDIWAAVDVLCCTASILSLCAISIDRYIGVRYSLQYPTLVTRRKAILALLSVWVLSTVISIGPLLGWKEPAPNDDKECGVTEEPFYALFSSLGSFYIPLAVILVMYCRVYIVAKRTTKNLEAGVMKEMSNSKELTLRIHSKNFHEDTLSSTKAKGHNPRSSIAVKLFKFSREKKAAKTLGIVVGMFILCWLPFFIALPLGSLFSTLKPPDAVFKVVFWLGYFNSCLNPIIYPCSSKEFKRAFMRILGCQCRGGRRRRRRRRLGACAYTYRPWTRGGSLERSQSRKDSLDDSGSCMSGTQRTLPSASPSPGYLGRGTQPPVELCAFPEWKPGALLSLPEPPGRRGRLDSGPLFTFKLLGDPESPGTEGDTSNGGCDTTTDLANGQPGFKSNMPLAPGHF
T1 sequence (P23944 whole entry): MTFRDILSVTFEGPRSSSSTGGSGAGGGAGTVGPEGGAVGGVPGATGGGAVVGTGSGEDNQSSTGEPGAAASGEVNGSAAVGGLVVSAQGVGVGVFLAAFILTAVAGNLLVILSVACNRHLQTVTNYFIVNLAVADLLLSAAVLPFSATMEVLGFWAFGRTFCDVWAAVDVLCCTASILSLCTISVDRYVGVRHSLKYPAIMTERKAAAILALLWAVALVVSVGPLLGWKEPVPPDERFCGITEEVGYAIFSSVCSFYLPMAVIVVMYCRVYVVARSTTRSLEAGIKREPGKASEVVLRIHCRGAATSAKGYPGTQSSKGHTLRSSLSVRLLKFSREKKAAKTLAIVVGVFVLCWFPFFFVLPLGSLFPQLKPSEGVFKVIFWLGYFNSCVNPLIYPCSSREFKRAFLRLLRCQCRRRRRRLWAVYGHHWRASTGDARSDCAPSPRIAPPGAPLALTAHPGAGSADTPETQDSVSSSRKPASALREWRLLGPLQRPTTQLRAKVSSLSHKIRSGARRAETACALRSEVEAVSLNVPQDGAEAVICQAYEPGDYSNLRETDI
T1 sequence (P43140 whole entry): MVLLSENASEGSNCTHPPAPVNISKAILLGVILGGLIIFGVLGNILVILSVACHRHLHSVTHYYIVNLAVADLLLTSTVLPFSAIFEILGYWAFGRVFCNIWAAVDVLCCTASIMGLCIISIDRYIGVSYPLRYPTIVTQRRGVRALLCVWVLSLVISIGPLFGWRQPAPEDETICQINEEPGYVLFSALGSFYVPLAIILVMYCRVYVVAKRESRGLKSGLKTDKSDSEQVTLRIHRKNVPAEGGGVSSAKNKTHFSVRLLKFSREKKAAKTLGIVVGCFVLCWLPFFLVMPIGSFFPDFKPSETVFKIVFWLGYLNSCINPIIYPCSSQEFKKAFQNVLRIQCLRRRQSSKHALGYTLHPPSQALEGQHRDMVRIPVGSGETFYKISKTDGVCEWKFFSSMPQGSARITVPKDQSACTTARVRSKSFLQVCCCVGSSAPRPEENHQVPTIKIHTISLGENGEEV
The experiment can be described thus: In vitro binding affinity determined for alpha-1 adrenergic receptor by the displacement of [3H]- prazosin. It is filed as protein assay.

A further experiment concerns Rattus norvegicus. The experiment can be described thus: Antihypertensive activity determined in spontaneously hypertensive rats(SHR) by percent reduction in blood pressure at 5 mg/kg peroral administration at 4 hour. In kind it is functional. Particulars: route oral.
The subject of experiment [3] is Adrenergic receptor alpha-2 (Oryctolagus cuniculus). The experiment can be described thus: Competitive antagonist activity of the pre junctional alpha-2 adrenergic receptor mediated vasoconstrictor action of norepinephrine expressed as concentration producing 40% reduction in contractile response at 10e-5 M; No activity.
The target of experiment [4] is Adrenergic receptor alpha. The experiment can be described thus: Tested for functional alpha-antagonist activity against norepinephrine in rabbit aorta and pulmonary artery. It is filed as tissue-based, Oryctolagus cuniculus.
The test system of experiment [5] is Adrenergic receptor alpha-1 (Oryctolagus cuniculus).

Calls of active or inactive are those of the source. The calls are words filed in the database; no cut-off is given here.

Turning to `CCN(CC)C(=O)C1CCCN(c2nc(N)c3cc(OC)c(OC)cc3n2)C1` (centres undefined), the Displacement in experiment [1] is less than 50%. Also, in experiment [2], the Ki turned out to be 116.73 nM. Further, in the experiment with Rattus norvegicus, the Reduction was 16%.

For the molecule `COc1cc2nc(N3CCC(C(=O)N(C)Cc4ccccc4)CC3)nc(N)c2cc1OC`, the Ki in experiment [2] worked out at 0.2 nM.

For `CCCNC(=O)CC1CCN(c2nc(N)c3cc(OC)c(OC)cc3n2)CC1`, the EC40 result in experiment [3] was “inactive”. In experiment [2], the Ki was determined as 0.65 nM. Further, in experiment [4], the pA2 worked out at 7.42. The molecule also showed an EC40 in experiment [5] of 18 nM.

`COc1cc2nc(N3CCC(C(=O)NC4CCCC4)CC3)nc(N)c2cc1OC` had a Displacement in experiment [1] of less than 50%. This molecule also gave a Ki in experiment [2] of 0.63 nM.

Consider `CCCCNC(=O)COC1CCN(c2nc(N)c3cc(OC)c(OC)cc3n2)CC1`, for which the Ki in experiment [2] amounted to 0.79 nM.

With `COc1cc2nc(N3CCC(C(=O)NCCOc4ccccc4)CC3)nc(N)c2cc1OC`, in experiment [2], the Ki worked out at 0.42 nM.

The molecule `COCCNC(=O)C1CCN(c2nc(N)c3cc(OC)c(OC)cc3n2)CC1` showed a Displacement in experiment [1] of less than 50%. In addition, the Ki in experiment [2] stood at 1.13 nM.

The molecule `CCN(CC)C(=O)C1CCN(c2nc(N)c3cc(OC)c(OC)cc3n2)CC1` gave a Displacement in experiment [1] of less than 50%. The Ki in experiment [2] turned out to be 1.11 nM.

`COc1cc2nc(N3CCC(C(=O)NCc4ccccc4)CC3)nc(N)c2cc1OC` yielded a Ki in experiment [2] of 0.22 nM.

In turn, `COc1cc2nc(N3CCC(C(=O)N4CCOCC4)CC3)nc(N)c2cc1OC` showed a Displacement in experiment [1] of less than 50%. In experiment [2], the Ki was determined as 1.14 nM.

Take `COc1cc2nc(N3CCC(CC(=O)NCC4CC4)CC3)nc(N)c2cc1OC`: the EC40 entry in experiment [3] was “inactive”. For the same molecule, the Ki in experiment [2] is reported as 1.08 nM. Besides, the pA2 in experiment [4] is listed as 7.25. Moreover, in experiment [5], the EC40 was found to be 97 nM.

In experiment [2], `CCCCNC(=O)CC1CCN(c2nc(N)c3cc(OC)c(OC)cc3n2)CC1` returned a Ki of 1.4 nM.

Regarding `CCCCNC(=O)CCC1CCN(c2nc(N)c3cc(OC)c(OC)cc3n2)CC1`, the Ki in experiment [2] is 0.47 nM.

`CCCCNC(=O)C1CCN(c2nc(N)c3cc(OC)c(OC)cc3n2)CC1` yielded a Ki in experiment [2] of 0.67 nM.

With `CCNC(=O)C1CCN(c2nc(N)c3cc(OC)c(OC)cc3n2)CC1`, the Displacement in experiment [1] was less than 50%. The same molecule registered a Ki in experiment [2] of 1.64 nM.

In experiment [1], `CCCCNC(=O)C1CCCN(c2nc(N)c3cc(OC)c(OC)cc3n2)C1` (centres undefined) yielded a Displacement of less than 50%. Also, the Ki in experiment [2] was determined as 8.25 nM.

Regarding `COc1cc2nc(N3CCC(C(=O)NCC4CC4)CC3)nc(N)c2cc1OC`, in experiment [1], the Displacement was less than 50%. The molecule also registered a Ki in experiment [2] of 0.9 nM.

In experiment [1], `COc1cc2nc(N3CCC(C(=O)Nc4ccccc4)CC3)nc(N)c2cc1OC` returned a Displacement of less than 50%. This molecule also returned a Ki in experiment [2] of 0.47 nM.

In experiment [2], `COc1cc2nc(N3CCC(C(N)=O)CC3)nc(N)c2cc1OC` gave a Ki of 1.46 nM.

In turn, `COc1cc2nc(N3CCC(C(=O)NCCO)CC3)nc(N)c2cc1OC` returned a Displacement in experiment [1] of less than 50%. Besides, the Ki in experiment [2] worked out at 1.73 nM. This molecule gave a Reduction with Rattus norvegicus of 5%.

In experiment [2], `COc1cc2nc(N3CCC(C(=O)NCCc4ccccc4)CC3)nc(N)c2cc1OC` returned a Ki of 0.1 nM.
